The record followed here is publication PMC9266216, “Chemical Characterization, α-Glucosidase, α-Amylase and Lipase Inhibitory Properties of the Australian Honey Bee Propolis” (Foods, 2022).

In assay [1] the target is T1, human salivary α-amylase (Homo sapiens, UniProt P0DUB6).
T1 construct: purchased Sigma Aldrich
T1 sequence (P0DUB6 16-511): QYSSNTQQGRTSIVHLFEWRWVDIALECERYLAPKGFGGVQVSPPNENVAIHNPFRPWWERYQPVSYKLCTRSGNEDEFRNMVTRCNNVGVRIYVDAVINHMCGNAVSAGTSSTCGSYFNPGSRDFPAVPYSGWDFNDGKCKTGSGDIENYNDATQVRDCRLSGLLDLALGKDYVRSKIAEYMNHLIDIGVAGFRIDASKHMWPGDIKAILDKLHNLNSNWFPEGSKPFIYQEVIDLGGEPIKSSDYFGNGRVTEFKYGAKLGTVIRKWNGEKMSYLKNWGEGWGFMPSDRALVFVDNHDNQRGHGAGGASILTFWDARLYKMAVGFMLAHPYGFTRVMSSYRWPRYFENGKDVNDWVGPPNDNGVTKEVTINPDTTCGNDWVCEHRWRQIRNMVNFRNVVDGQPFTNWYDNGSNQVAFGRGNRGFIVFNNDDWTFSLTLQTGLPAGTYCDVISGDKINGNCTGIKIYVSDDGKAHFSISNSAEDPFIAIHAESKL
In words: α-amylase inhibition assay (CNP-G3, absorbance 405 nm). It is filed as biochemical. Conditions: for IC50: 120 min incubation, pH 6.0, 37 °C. On the procedure:
The α-amylase inhibition assay was performed in 96-well microtiter plates. In each well was added 10 μL of propolis sample dissolved in DMSO, and 90 μL of 0.1 M phosphate buffer adjusted to pH 6.0 using 2.0 M H3PO4. To the solution, 80 μL of human salivary α-amylase solution (2.0 U/mL) was added and incubated for approximately 10 min at 37 °C. The enzyme reaction was initiated by adding 20 μL of the substrate solution CNP-G3 (10 mM in phosphate buffer). […] The percentage inhibition was calculated using the same formula as described for the α-glucosidase inhibition assay.

Assay [2] has as its target T2, porcine pancreas lipase (Sus scrofa, UniProt P00591).
T2 construct: purchased Sigma Aldrich
T2 sequence (P00591 1-450): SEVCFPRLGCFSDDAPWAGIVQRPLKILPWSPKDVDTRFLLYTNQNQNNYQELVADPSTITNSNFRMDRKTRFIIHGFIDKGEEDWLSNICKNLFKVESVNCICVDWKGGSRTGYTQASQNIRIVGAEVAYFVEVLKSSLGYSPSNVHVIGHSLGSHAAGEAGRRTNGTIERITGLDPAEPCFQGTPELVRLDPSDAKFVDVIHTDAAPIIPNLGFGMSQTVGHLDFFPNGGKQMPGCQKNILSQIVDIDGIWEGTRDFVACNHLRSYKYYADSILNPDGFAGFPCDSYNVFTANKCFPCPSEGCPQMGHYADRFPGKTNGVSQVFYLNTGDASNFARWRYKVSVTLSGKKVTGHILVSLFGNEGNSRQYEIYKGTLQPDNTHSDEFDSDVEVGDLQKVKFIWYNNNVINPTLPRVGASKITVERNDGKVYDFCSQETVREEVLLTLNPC
In words: lipase inhibition assay (p-NPB, absorbance 405 nm). In kind it is biochemical. Conditions: for IC50: 60 min incubation, pH 7.4, 37 °C. As to the method:
The solvents used for extraction (ethanol—EtOH), HPLC (acetonitrile—MeCN), and LC–MS (MeCN and water—H2O) analyses were purchased from Merck. The ultra-pure water used for the HPLC analysis was from an in-house Milli-Q system.
The lipase inhibition assay was performed in 96-well microtiter plates. In each well was added 10 μL of propolis sample dissolved in DMSO and 155 μL of 0.1 M tris-HCl buffer adjusted to pH 7.4 using 1.0 M KOH. To the solution, 25 μL of lipase solution (2000 U/mL) was added and incubated for approximately 15 min at 37 °C. The enzyme reaction was initiated by adding 10 μL of the substrate solution p-NPB (100 mM in methanol). The colorimetric absorbance of the cleavage product after 60 min of incubation was measured at 405 nm, using the EnSpire microplate reader (Perkin Elmer). […] The percentage inhibition was calculated using the same formula as described for the α-glucosidase inhibition assay.

In assay [3] the target is α-glucosidase (Saccharomyces cerevisiae, UniProt P53341). In words: biochemical. Conditions: read-out: α-Glucosidase inhibition. As to the method: The α-glucosidase inhibition assay was performed at room temperature in 96-well microtiter plates (Sigma Aldrich, Sydney, Australia). The assays were adapted from Zhao et al., with some modifications. Briefly, in each well was added 10 μL of propolis sample at 2 mg/mL in DMSO and 90 μL of 0.1 M phosphate buffer, adjusted to pH 7.5 using 0.6 M KOH. To the solution, 80 μL of α-glucosidase solution (2.0 U/mL) was added and incubated for 10 min at room temperature. The enzyme reaction was initiated by adding 20 μL of p-NPG solution (10 mM in phosphate buffer). The colorimetric absorbance of the cleavage product (the strongly chromogenic p-nitrophenolate ion) after 30 min of incubation was measured at 405 nm using the EnSpire microplate reader (Perkin Elmer, Boston, MA, USA). […] The results were analyzed and calculated in Microsoft Excel, and expressed using the mean for each of the triplicate sets. Inhibition of the enzyme was calculated as follows: Inhibition (%)=(1−Absorbance (sample)/Absorbance (blank) )×100%)
Sequence of α-glucosidase (P53341 whole entry): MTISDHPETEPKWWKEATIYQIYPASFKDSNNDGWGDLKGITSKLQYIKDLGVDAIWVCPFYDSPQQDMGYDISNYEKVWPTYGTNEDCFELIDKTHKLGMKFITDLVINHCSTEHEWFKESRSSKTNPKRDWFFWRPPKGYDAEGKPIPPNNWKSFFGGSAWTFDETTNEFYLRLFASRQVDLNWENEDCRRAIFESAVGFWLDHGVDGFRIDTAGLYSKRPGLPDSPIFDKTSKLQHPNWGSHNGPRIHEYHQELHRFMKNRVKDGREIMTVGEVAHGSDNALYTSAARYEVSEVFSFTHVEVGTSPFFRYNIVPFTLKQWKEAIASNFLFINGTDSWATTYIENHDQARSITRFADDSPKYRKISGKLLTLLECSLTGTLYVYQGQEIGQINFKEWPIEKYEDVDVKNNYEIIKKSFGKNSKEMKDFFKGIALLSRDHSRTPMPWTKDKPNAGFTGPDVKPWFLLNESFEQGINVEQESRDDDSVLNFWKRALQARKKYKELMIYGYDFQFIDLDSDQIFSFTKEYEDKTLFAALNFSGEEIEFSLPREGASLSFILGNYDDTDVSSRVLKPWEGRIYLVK

Regarding `CC(C)=CCC/C(C)=C/Cc1c(O)cc2c(c1O)C(=O)C[C@@H](c1ccc(O)c(O)c1)O2` [Compound 3, propolin C (Nymphaeol A)], the figures for the IC50 in assay [1] and in assay [2] were 204 µM and 30.3 µM, respectively.
Turning to `CC(C)=CCC/C(C)=C/Cc1cc([C@@H]2CC(=O)c3c(O)cc(O)cc3O2)ccc1O` [Compound 4, propolin H (3′-geranyl-naringenin)], the IC50 in assay [1] was found to be 52.5 µM; in assay [2] it was 33.1 µM.
As to `CC(C)=CCC/C(C)=C/Cc1c(-c2oc3cc(O)cc(O)c3c(=O)c2O)ccc(O)c1O` [Compound 6, solophenol D], the IC50 was determined as 142 µM in assay [1] and 32.3 µM in assay [2].
`CC(C)=CCC/C(C)=C/Cc1c([C@@H]2CC(=O)c3c(cc(O)c(CC=C(C)C)c3O)O2)ccc(O)c1O` [Compound 5, propolin G (Nymphaeol C)]: the IC50 was determined as 246 µM in assay [1] and 43.4 µM in assay [2].
`O=c1c(O)c(-c2ccc(O)c(O)c2)oc2cc(O)cc(O)c12` [Compound 9, quercetin, reference compound] yielded an IC50 in assay [1] of 17.4 µM. Besides, the inhibition at 83 µM in assay [2] is 37%.
`O=C1C[C@@H](c2ccc(O)c(O)c2)Oc2cc(O)cc(O)c21` [Compound 7, eriodictyol, reference compound]: the figures for the inhibition at 250 µM in assay [3] and in assay [1] were 13% and 41%, respectively. For the same molecule, in assay [2], the inhibition at 83 µM was determined as 12%.
For `CC(C)=CCC/C(C)=C/Cc1cc([C@@H]2CC(=O)c3c(O)cc(O)cc3O2)cc(O)c1O` [Compound 2, propolin F (Isonymphaeol B)], the values for the IC50 in assay [1] and in assay [2] were 135 µM and 53 µM, respectively.
The corresponding values for `CC(C)=CCC/C(C)=C/Cc1c([C@@H]2CC(=O)c3c(O)cc(O)cc3O2)ccc(O)c1O` [Compound 1, propolin D (Nymphaeol B)] are 205 µM and 51.8 µM.
On to `O=C1C[C@@H](c2ccc(O)cc2)Oc2cc(O)cc(O)c21` [Compound 8, naringenin, reference compound], for which the inhibition at 250 µM in assay [3] was 40%; in assay [1] it was 73%. This molecule came in with an IC50 in assay [1] of 121 µM. The molecule further had an inhibition at 83 µM in assay [2] of 24%.
